Source: the NIST ThermoML archive (doi:10.1021/je060271a)

Settings: 283.15 K, Liquid, Vibrating tube method

CCCCC(=O)OCC(COC(=O)CCCC)(COC(=O)CCCC)COC(=O)CCCC [pentaerythritol tetrapentanoate]
Settings | mass density [kg/m3]
27222 kPa | 1042.2
27265 kPa | 1042.3
27300 kPa | 1042.3
27336 kPa | 1042.4
27379 kPa | 1042.4
27415 kPa | 1042.3
27450 kPa | 1042.4
27493 kPa | 1042.5
27528 kPa | 1042.4
27564 kPa | 1042.3
27608 kPa | 1042.5
27645 kPa | 1042.6
27681 kPa | 1042.5
27718 kPa | 1042.5
27762 kPa | 1042.5
27798 kPa | 1042.5
27842 kPa | 1042.6
27879 kPa | 1042.6
27916 kPa | 1042.6
27961 kPa | 1042.6
27998 kPa | 1042.8
28035 kPa | 1042.7
28074 kPa | 1042.8
28121 kPa | 1042.7
28158 kPa | 1042.7
28196 kPa | 1042.8
28241 kPa | 1042.8
28279 kPa | 1042.8
28316 kPa | 1042.8
28354 kPa | 1042.8
28400 kPa | 1042.8
28438 kPa | 1043
28477 kPa | 1043
28524 kPa | 1043
28563 kPa | 1043
28610 kPa | 1043
28652 kPa | 1043
28691 kPa | 1043.1
28730 kPa | 1043.1
28770 kPa | 1043
28816 kPa | 1043.1
28856 kPa | 1043.1
28896 kPa | 1043.1
28944 kPa | 1043.2
28984 kPa | 1043.2
29024 kPa | 1043.1
29072 kPa | 1043.3
29112 kPa | 1043.2
29153 kPa | 1043.3
29194 kPa | 1043.3
29244 kPa | 1043.3
29285 kPa | 1043.3
29333 kPa | 1043.4
29375 kPa | 1043.4
29416 kPa | 1043.4
29458 kPa | 1043.4
29508 kPa | 1043.4
29549 kPa | 1043.5
29592 kPa | 1043.4
29642 kPa | 1043.4
29685 kPa | 1043.6
29737 kPa | 1043.6
29782 kPa | 1043.6
29825 kPa | 1043.6
29869 kPa | 1043.7
29926 kPa | 1043.7
29972 kPa | 1043.7
30019 kPa | 1043.7
30074 kPa | 1043.7
30106 kPa | 1043.7
30144 kPa | 1043.9
30175 kPa | 1043.8
30205 kPa | 1043.8
30243 kPa | 1043.8
30275 kPa | 1043.9
30307 kPa | 1043.9
30340 kPa | 1044
30379 kPa | 1043.8
30413 kPa | 1043.9
30453 kPa | 1043.9
30485 kPa | 1044
30517 kPa | 1044
30549 kPa | 1044
30588 kPa | 1043.9
30621 kPa | 1044
30653 kPa | 1044.2
30692 kPa | 1044
30724 kPa | 1044.1
30757 kPa | 1044.1
30795 kPa | 1044.1
30828 kPa | 1044.1
30860 kPa | 1044.2
30899 kPa | 1044.1
30932 kPa | 1044.2
30965 kPa | 1044.2
31004 kPa | 1044.3
31038 kPa | 1044.2
31071 kPa | 1044.3
31110 kPa | 1044.2
31144 kPa | 1044.3
31178 kPa | 1044.4
31218 kPa | 1044.3
31252 kPa | 1044.4
31285 kPa | 1044.5
31325 kPa | 1044.3
31359 kPa | 1044.5
31393 kPa | 1044.4
31427 kPa | 1044.5
31468 kPa | 1044.5
31503 kPa | 1044.5
31544 kPa | 1044.5
31578 kPa | 1044.5
31613 kPa | 1044.6
31650 kPa | 1044.6
31685 kPa | 1044.5
31726 kPa | 1044.7
31762 kPa | 1044.6
31797 kPa | 1044.7
31839 kPa | 1044.7
31874 kPa | 1044.7
31909 kPa | 1044.7
31951 kPa | 1044.8
31987 kPa | 1044.8
32023 kPa | 1044.7
32066 kPa | 1044.8
32103 kPa | 1044.7
32141 kPa | 1044.8
32177 kPa | 1044.8
32214 kPa | 1044.9
32257 kPa | 1044.9
32294 kPa | 1044.9
32337 kPa | 1044.8
32373 kPa | 1045.1
32410 kPa | 1044.9
32447 kPa | 1044.9
32491 kPa | 1045
32528 kPa | 1045
32572 kPa | 1045
32609 kPa | 1045.1
32647 kPa | 1045.2
32691 kPa | 1045.2
32728 kPa | 1045.1
32766 kPa | 1045.2
32804 kPa | 1045.1
32850 kPa | 1045.1
32887 kPa | 1045.2
32925 kPa | 1045.2
32971 kPa | 1045.2
33008 kPa | 1045.2
33055 kPa | 1045.3
33093 kPa | 1045.2
33133 kPa | 1045.3
33172 kPa | 1045.3
33218 kPa | 1045.3
33258 kPa | 1045.4
33297 kPa | 1045.4
33344 kPa | 1045.4
33383 kPa | 1045.5
33430 kPa | 1045.5
33471 kPa | 1045.4
